According to patent publication US20030013650A1, “VR-OAC, an osomotically activated channel protein, nucleic acids encoding it, and uses thereof” (The Rockefeller University, priority 2000, published 2003):
“Also recorded” adds a separate entry of the source.

How the values were obtained:
[1] = test system: VR-OAC; assay: Whole-cell and patch recordings from VR-OAC-transfected CHO-K1 cells; assay type: cell-based, chicken or rat; set-up: effect on VR-OAC-transfected cells (whole-cell current) / effect on whole-cell current: dose or concentration left out as unconfirmed; conditions: for VR-OAC currents on stimulation with hypotonic solution: after incubation in 10 μM thapsigargin and 20 μM SKF 96365 (combined)
Protocol: Electrophysiological characterization of VR-OAC was performed at room temperature on CHO-K1 cell lines stably or transiently transfected with one of four expression vectors, pcDNA3.1 (Invitrogen) with inserts bearing chicken or rat VR-OAC, eGFP-OAC, or eGFP-ΔOAC. These cells were selected because untransfected HEK 293 cells responded to hypotonic stress and Xenopus laevis oocytes are known to respond to membrane stretch (Yang and Sachs, 1989). Cells plated on glass-bottom Petri dishes were observed through a 40× water-immersion objective lens on an inverted microscope (Aviovert 100 M, Carl Zeiss) equipped with Nomarski optics. We recorded whole-cell and patch currents with a voltage-clamp amplifier (EPC-7, List-Electronic, Darmstadt-Eberstadt, Germany). Voltage stimuli were generated and responses recorded with a computer (P6400 GX1, Dell) running LabVIEW 5.0 software (National Instruments, Austin, Tex.). Voltage and current responses were low-pass filtered at 2 kHz with an eight-pole Bessel filter and sampled at 5 kHz.
Tight-seal pipettes were bent to permit an orthogonal approach to a cell's surface and heat-polished to give resistances of 3-5 MΩ. Internal solutions typically contained 117 mM NaCl, 5 mM HEPES, 1 mM EDTA, and mannitol to achieve isotonicity. EDTA was omitted in the pipette solution during experiments in which the bath solution also lacked EDTA. Pipette and cell capacitance were largely compensated; series resistance compensation ranged from 10% to 60%. Ground reference was provided by an Ag—AgCl electrode through a 150 mM KC1 agar bridge.
A fluid-jet stimulus was delivered by applying a pressure pulse of about 3 kPa to the rear of a glass pipette with a tip diameter of 5-10 μm. Filled with saline solution identical to that in the recording chamber, the pipette's tip was oriented perpendicular to the bottom of the chamber and placed roughly 10 μm above the target cell. The onset and termination of the jet were regulated by a solenoid valve (Picospritzer II, General Valve Corporation, Fairfield, N.J.) under computer control. During whole-cell recording, cells were maintained in isotonic or slightly hypertonic solutions. Mechanical stimulation was accomplished by perfusion of hypotonic solutions. […] Isotonic and hypertonic solutions were prepared by supplementing the standard hypotonic solution with mannitol to respectively 295 mmol kg−1 and 340 mmol kg−1.
In studies of the effects of Ca2+ and Gd3+ on whole-cell currents, hypotonic test solutions included respectively 2 mM CaCl2 or […] GdCl3. Because carboxylic-acid Ca2+ chelators are known to compromise the capacity of GdC13 to block mechanosensitive channels (Caldwell et al., 1998), EDTA was excluded from the latter medium and the pipette solution. […]

[2] = test system: VR-OAC; assay: Ca2+ imaging (fluo-4) of CHO cells transfected with VR-OAC or variants; assay type: cell-based, rat and chicken; conditions: for fluo-4 fluorescence upon exposure to hypotonic medium: stores depleted with 10 μM thapsigargin and potentiation channels blocked with 20 μM SKF 96365 (combined); for response of VR-OAC-transfected cells to ligand (fluo-4 Ca2+ imaging): chicken and rat VR-OAC-transfected cells, resiniferatoxin 0.2 μM and 5 μM, anandamide 5 μM and 25 μM
Excerpt: (§1) To confirm that VR-OAC constitutes an ion channel and to determine the stimulus that gates it, we expressed the rat and chicken proteins in stably transfected Chinese hamster ovary (CHO) cells. Untransfected CHO cells and a line stably transfected with a VR1-expressing plasmid served as controls. We loaded VR-OAC-expressing cells with the Ca^2+ indicator fluo-4 AM and used conventional and confocal icroscopy to monitor changes in fluorescence, which reflected alterations in the ntracellular Ca^2+ concentration.
(§2) The complete cDNAs of rat VR-OAC, chicken VR-OAC, and rat VR1 were subcloned into the eukaryotic expression vector pcDNA3.1 (Invitrogen, Carlsbad, Calif.). CHO-K1 cells (ATCC, Manassas, Va.) were transfected with these vectors and selected with G418 (Life Technology, Gaithersburg, Md.). Stable clones that expressed the mRNAs were identified by Northern blot analysis and, for VR1, by response to ligand.
(§3) For Ca2+ imaging, cells were loaded for 30 min at room temperature in […] fluo-4 AM ester (Molecular Probes, Eugene, Oreg.) in isoosmotic Hille's saline solution (130 mM Na^+, 2.5 mM K^+, 2 mM Ca2+, 1 mM Mg2+, 138.5 mM Cl−, 20 mM D-glucose, and 10 mM HEPES at pH 7.3; Babcock et al., 1997) containing 2 mM probenecid. The cells were then washed and incubated for 15 min at 30° C. to promote deacetylation of internalized fluo-4 AM ester.
(§4) Confocal analysis was performed with an MRC-1024ES system (Bio-Rad, Hercules, Calif.) mounted on an inverted microscope (Zeiss Axiovert 135TV, Carl Zeiss, Jena, Germany). Confocal image series were collected using Lasersharp software (BioRad) running on a Poweredge 2300 computer (Dell Computer, Round Rock, Tex.). Images were also recorded with a cooled digital camera (Micromax, Princeton Instruments Inc., Princeton, N.J.) atop a Zeiss Axioplan microscope. These images were analyzed using IPLab software (Scanalytics Inc., Fairfax, Va.). Analysis of single-frame or single-cell integrated signal density was performed on Macintosh computers running NIH Image software (version 1.61; O'Neill et al., 1989).
(§5) Solutions with different osmotic strengths were created by adding water or mannitol to Hille's saline solution. Unless otherwise noted, the Ca2+ concentration of all solutions was held constant at 2 mM. The resultant osmolalities were verified with a vapor-pressure osmometer (Vapro 5520, Wescor Inc., Logan, Utah). The test solutions included a graded series of hypotonic solutions (with 220 mmol kg-1 the lowest osmolality), a hypertonic solution (330 mmol kg-1), isotonic solutions at 295 mmol kg-1 with graded concentrations of Na+ (with 50 mM the lowest concentration), and hypotonic solutions containing 100 μM, 250 μM, and 500 μM GdCl3. Ligands used for stimulation were resiniferatoxin (Sigma Chemicals, St. Louis, Mo.) at 0.2 μM and 5 μM and anandamide (Cayman Chemical, Ann Arbor, Mich.) at 5 μM and 25 μM. To test whether VR-OAC is directly gated by increases in temperature, we exposed dishes containing fluo-4-loaded cells to temperatures ranging from room temperature to 30° C., 37° C., 40° C., 45° C., 50° C., and 55° C. Images were acquired during the thermal stimulus series at intervals of 60 s for up to 10 min after the start of heating. A series of calibration experiments confirmed that this interval ensured proper thermal equilibration. A similar procedure was used to test the response to hypotonicity at various temperatures.

[3] = biological target: T1, rat VR1 (Rattus norvegicus, UniProt O35433); assay: Ca2+ imaging (fluo-4) of control CHO cells expressing rat VR1; assay type: cell-based; conditions: control CHO line expressing rat VR1; 200 nM resiniferatoxin (FIG. 10A legend)
T1 construct: The complete cDNAs of rat VR-OAC, chicken VR-OAC, and rat VR1 were subcloned into the eukaryotic expression vector pcDNA3.1; expressed in transfected cells
Excerpt: as §1
as §2, with “ligand. […]” for “ligand.”
Confocal analysis was performed with an MRC-1024ES system (Bio-Rad, Hercules, Calif.) mounted on an inverted microscope (Zeiss Axiovert 135TV, Carl Zeiss, Jena, Germany). […] Images were also recorded with a cooled digital camera (Micromax, Princeton Instruments Inc., Princeton, N.J.) atop a Zeiss Axioplan microscope. These images were analyzed using IPLab software (Scanalytics Inc., Fairfax, Va.). […]

[4] = biological target: T2, VR-OAC (Rattus norvegicus, UniProt Q9ERZ8, M680K); assay: Ca2+ imaging (fluo-4) of CHO cells transfected with VR-OAC or variants; assay type: cell-based, rat and chicken; conditions: tissue culture cells
T2 construct: The complete cDNAs of rat VR-OAC, chicken VR-OAC, and rat VR1 were subcloned into the eukaryotic expression vector pcDNA3.1; expressed in transfected cells; host or cells: CHO-K1 (stably or transiently transfected, pcDNA3.1)
Excerpt: as §1, §2, §3, §4, §5

[5] = test system: C. elegans mutant osm-9; assay: Transgenic rescue of C. elegans mutant osm-9 (osmotic avoidance, nose touch, odorant avoidance); assay type: in vivo, Caenorhabditis elegans; conditions: for rescue of lack of osmotic avoidance and lack of response to nose touch: expressed in ASH neurons (sra6 promotor) of osm-9 worms
Protocol: The coding region of the rat VR-OAC cDNA was cloned into the C. elegans expression vector pPD49.26 that contained the sra6 promotor. This promotor directs expression in the ASH and ASI neurons. Purified DNA was injected into the gonad of hermaphroditic worms, strain N2, together with the marker gene elt-2/green fluorescent protein (GFP) which directs expression of GFP in C. elegans intestinal cells. Transgenic offspring could be identified by GFP fluorescence, and VR-OAC transgenic lines of worms were generated. Likewise, several transgenic lines of worms were established and maintained on an osm-9 (ky-10 allele) genetic background. In these worms, an osmotic avoidance in response to hyperosmotic stimuli was clearly present, as was sensitivity to nose touch (FIGS. 15A and 15B). The avoidance reactions were assayed on single animals as previously described^34. Odorant avoidance in response to octanone was not present. […] In order to confirm that the observed rescue is mediated by the ASH neuron, both ASH neurons were laser ablated in osm-9/VR-OAC transgenic (tg) worms. This procedure completely abolished rescue (FIGS. 15A and 15B). In order to visualize subcellular localization of the VR-OACtg in the ASH neuron, GFP was tagged to the C-terminus of VR-OAC. The tagged protein could be localized to the cilia of the ASH neuron in the worm nose where fluorescence was stronger than in any other part of this neuron. Rescue was not impaired in VR-OAC/GFPtg osm-9 worms (FIGS. 15A and 15B).
In order to understand better the specificity of the observed rescue, VR-OACtg worms were crossed to C. elegans mutants which genetically define the alternate mechanosensory pathway. VR-OACtg worms of the following mutant lines were generated: ocr-2, odr-3, glr-1, osm-10 and double-mutants of the former with osm-9. These lines were tested for osmotic avoidance, nose touch and odorant avoidance. […] In another control experiment addressing the specificity of the observed rescue, we expressed rat VR1 under the control of the sra6 promotor in ASH neurons of wild type and osm-9 worms. No rescue was observed. However, in osm-9 as well as in wild type worms tg for VR1 there was a strong avoidance response to vanilloids which was absent in non-tg worms.
Next, we wanted to use the transgenic rescue of osm-9 by VR-OAC as an in-vivo model in order to better understand structure-function relationships of VR-OAC. Gross deletions were constructed lacking either the N-terminal intracellular domain (aminoacid [AA] 1-410 of VR-OAC), the C-terminal intracellular domain (AA 741-781 of VR-OAC) or both. Three lines of worms were established for each of the gross deletions. The line with the most pronounced rescue as an indication of highest expression level of tg was investigated more in depth. […] The N-terminus and the C-terminus thus appear dispensable for the response to osmotic and mechanical stimuli, and, most likely, for proper intracellular transport in the ASH neuron. In addition to these gross deletions, we wanted to learn more about the structure-function relationship of strategically positioned single amino acid exchanges in the pore-loop domain of VR-OAC. As for the gross deletions, three lines of worms were generated for each point mutation. […]

T1 sequence (O35433 whole entry): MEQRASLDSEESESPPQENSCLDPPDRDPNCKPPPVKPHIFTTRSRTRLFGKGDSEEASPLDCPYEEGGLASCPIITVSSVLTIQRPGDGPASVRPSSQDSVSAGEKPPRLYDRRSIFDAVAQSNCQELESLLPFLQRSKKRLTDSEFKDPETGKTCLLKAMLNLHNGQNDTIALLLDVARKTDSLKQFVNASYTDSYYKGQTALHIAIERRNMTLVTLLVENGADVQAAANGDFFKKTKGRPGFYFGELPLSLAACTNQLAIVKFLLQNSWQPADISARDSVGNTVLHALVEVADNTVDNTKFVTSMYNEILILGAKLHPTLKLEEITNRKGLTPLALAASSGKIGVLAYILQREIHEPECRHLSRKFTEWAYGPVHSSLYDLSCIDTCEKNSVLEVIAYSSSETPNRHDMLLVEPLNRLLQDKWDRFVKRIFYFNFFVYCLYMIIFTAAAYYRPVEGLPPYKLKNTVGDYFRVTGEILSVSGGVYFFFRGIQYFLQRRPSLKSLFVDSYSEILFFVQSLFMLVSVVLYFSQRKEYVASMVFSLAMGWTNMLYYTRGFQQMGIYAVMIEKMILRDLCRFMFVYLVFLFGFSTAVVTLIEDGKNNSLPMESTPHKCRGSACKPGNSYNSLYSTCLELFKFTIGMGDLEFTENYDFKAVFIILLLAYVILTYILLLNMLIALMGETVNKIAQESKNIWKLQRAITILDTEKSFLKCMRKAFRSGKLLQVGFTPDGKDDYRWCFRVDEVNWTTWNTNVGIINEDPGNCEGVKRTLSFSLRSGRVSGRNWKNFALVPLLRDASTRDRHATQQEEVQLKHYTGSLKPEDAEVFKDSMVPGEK
T2 sequence (Q9ERZ8 whole entry M680K): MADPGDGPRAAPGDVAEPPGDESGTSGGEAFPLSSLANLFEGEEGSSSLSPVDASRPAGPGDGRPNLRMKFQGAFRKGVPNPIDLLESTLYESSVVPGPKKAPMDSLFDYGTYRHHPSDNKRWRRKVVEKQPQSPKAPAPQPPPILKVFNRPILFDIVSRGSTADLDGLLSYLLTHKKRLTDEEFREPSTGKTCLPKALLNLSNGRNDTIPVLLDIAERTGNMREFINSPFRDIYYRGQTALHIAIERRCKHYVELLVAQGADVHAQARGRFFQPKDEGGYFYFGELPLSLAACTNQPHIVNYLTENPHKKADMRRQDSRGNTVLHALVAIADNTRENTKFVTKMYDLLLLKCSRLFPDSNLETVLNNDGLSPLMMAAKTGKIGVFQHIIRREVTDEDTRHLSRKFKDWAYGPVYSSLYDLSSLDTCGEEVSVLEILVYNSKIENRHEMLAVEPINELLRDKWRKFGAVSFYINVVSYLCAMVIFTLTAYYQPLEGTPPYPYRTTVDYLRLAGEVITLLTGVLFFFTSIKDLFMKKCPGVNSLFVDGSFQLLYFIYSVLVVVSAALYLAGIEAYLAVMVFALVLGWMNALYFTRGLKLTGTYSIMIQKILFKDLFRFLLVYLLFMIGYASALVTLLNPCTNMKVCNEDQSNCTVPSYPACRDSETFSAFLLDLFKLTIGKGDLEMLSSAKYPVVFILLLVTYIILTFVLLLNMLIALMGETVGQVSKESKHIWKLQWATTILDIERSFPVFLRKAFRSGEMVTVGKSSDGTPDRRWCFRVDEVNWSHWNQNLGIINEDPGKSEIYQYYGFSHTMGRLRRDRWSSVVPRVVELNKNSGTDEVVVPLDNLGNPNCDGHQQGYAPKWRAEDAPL

## [Gd+3] [Gd^3+, Gadolinium ion]
[1]; Gd^3+ extracellular, within the first few minutes
  effect on VR-OAC-transfected cells (whole-cell current): resembled that of Ca^2+
[1]; Gd^3+, more protracted exposure
  effect on whole-cell current: irreversibly abolished the whole-cell current

## COc1ccc(CCCOC(Cn2ccnc2)c2ccc(OC)cc2)cc1 (stereo not drawn) [SKF 96365]
[2]
  fluo-4 fluorescence upon exposure to hypotonic medium: does not increase
[1]
  VR-OAC currents on stimulation with hypotonic solution: displayed characteristic VR-OAC currents

## CCCCC/C=C\C/C=C\C/C=C\C/C=C\CCCC(=O)NCCO [anandamide]
[2]
  response of VR-OAC-transfected cells to ligand (fluo-4 Ca2+ imaging): responded neither

## C=C(C)[C@]12C[C@@H](C)[C@@]34O[C@](Cc5ccccc5)(O[C@@H]1[C@@H]3C=C(COC(=O)Cc1ccc(O)c(OC)c1)C[C@]1(O)C(=O)C(C)=C[C@@H]41)O2 [resiniferatoxin]
[3]
  intracellular Ca^2+ concentration / Ca^2+ influx (fluo-4 fluorescence): strong Ca^2+ influx; also recorded: increases the intracellular Ca^2+ concentration
[2]
  response of VR-OAC-transfected cells to ligand (fluo-4 Ca2+ imaging): responded neither

## C/C=C(/C)C(=O)O[C@H]1C(C)=C2[C@H]([C@@H]1OC(=O)CCCCCCC)[C@@](C)(OC(C)=O)C[C@H](OC(=O)CCC)[C@@]1(O)[C@H]2OC(=O)[C@@]1(C)O [thapsigargin]
[2]
  fluo-4 fluorescence upon exposure to hypotonic medium: does not increase
[1]
  VR-OAC currents on stimulation with hypotonic solution: displayed characteristic VR-OAC currents

## M680K: VR-OAC mutation of Lysine for Methionine at amino acid 680
[4]
  function in tissue culture cells: totally lacked function
[5]
  rescue of lack of osmotic avoidance and lack of response to nose touch: strikingly reduce rescue

## rat VR1: rat vanilloid receptor 1, expressed as specificity control
[5]
  rescue of lack of osmotic avoidance and lack of response to nose touch: No rescue

## rat VR-OAC: rat orthologue of VR-OAC, 871 amino acids
[5]
  rescue of lack of osmotic avoidance and lack of response to nose touch: partial rescue
[5]; osm-9 worms, octanone
  rescue of lack of odorant avoidance: no rescue

B1: VROAC without both its N-terminus and C-terminus: VR-OAC deletion of both N-terminal (AA 1-410) and C-terminal (AA 741-781) regions (protein, UniProt Q9HBA0 411-740, looked up, fragment)
chain: YGPVYSSLYDLSSLDTCGEEASVLEILVYNSKIENRHEMLAVEPINELLRDKWRKFGAVSFYINVVSYLCAMVIFTLTAYYQPLEGTPPYPYRTTVDYLRLAGEVITLFTGVLFFFTNIKDLFMKKCPGVNSLFIDGSFQLLYFIYSVLVIVSAALYLAGIEAYLAVMVFALVLGWMNALYFTRGLKLTGTYSIMIQKILFKDLFRFLLVYLLFMIGYASALVSLLNPCANMKVCNEDQTNCTVPTYPSCRDSETFSTFLLDLFKLTIGMGDLEMLSSTKYPVVFIILLVTYIILTFVLLLNMLIALMGETVGQVSKESKHIWKLQWATT
[5]
  rescue of lack of osmotic avoidance and lack of response to nose touch: still rescues
